Experimental data as given in patent US20040106143A1, “Monoclonal antibody against estrogen stimulated leucine aminopeptidase” (priority 2000, published 2004).

B1: Thioredoxin: thiol-containing peptide; human Thioredoxin purified from CD4+T MP6 cells, compared to E. coli Thioredoxin from Sigma-Aldrich (protein, UniProt P10599 2-105, looked up)
Thioredoxin: VKQIESKTAFQEALDAAGDKLVVVDFSATWCGPCKMIKPFFHSLSEKYSNVIFLEVDVDDCQDVASECEVKCMPTFQFFKKGQKVGEFSGANKEKLEATINELV

Tests used:
[1] = tested on: es-LAPase; test: es-LAPase enzyme kinetic inhibition assay (1-leucine-β-naphthylamide substrate); assay type: biochemical, human; conditions: for effect on es-LAPase activity / reaction rate (FIG. 2): 167 μM Bestatin, 167 μM reduced Glutathione, 17 μM reduced thioredoxin, versus control es-LAPase; for Vmax of es-LAPase in presence of inhibitor / Km / Ki: Bestatin 167 μM, Glutathione 167 μM, Thioredoxin 17 μM; for Vmax of es-LAPase in presence of inhibitor: LAPase alone 36.8 ± 1.9; for mode of es-LAPase inhibition: from Vmax, Km and Ki analysis; for Km: LAPase alone 1.67 ± 0.14, read-out: Km of es-LAPase in presence of inhibitor; for Ki: read-out: Ki (inhibition constant)
Description: The kinetic assays were performed using a Spectronic Genesys 5 spectrophotometer from Milton Roy (Rochester, N.Y.). Absorbance was recorded every sixty seconds, over a period of 30 min. Enzyme kinetic assays were performed using 8.0×10^−2 U of es-LAPase in a final reaction volume of 600 μl and triplicate samples. […] A corresponding blank without es-LAPase was used as baseline. Both of the cuvettes were transferred to the spectrophotometer where the 1-leucine-β-naphthylmide solution was added last, marking time zero of the reaction.

[2] = tested on: LAPase (purified preparations obtained from Sigma); test: LAPase activity of purified enzyme preparations incubated with 17-β-Estradiol; assay type: biochemical; conditions: 100 nM 17-β-Estradiol, 24 hrs
Description: Purified preparations of the enzyme obtained from Sigma were incubated with 100 nM 17-β-Estradiol for 24 hrs. LAPase activity was determined fluorometrically using leucine-β-naphthylamide as the substrate as described by Kuramochi et al. [Kuramochi, H. et al., (1987) J. Antibiot., 401605-1611].

[3] = tested on: primary parental breast carcinoma cells; test: LAPase release into cell supernatants following estrogen stimulation; assay type: cell-based, human
Description: Primary parental breast carcinoma cells were incubated with 100 nM 17-β-Estradiol for 24 hrs and cell media alone as a control. LAPase in supernatants was isolated using MAb 7B6(IgG1a)-protein-G-LAPase beads prepared by covalently cross-linking the monoclonal antibody. LAPase activity of the LAPase-immunoprecipitated supernatants was determined fluorometrically using leucine-β-naphthylamide as the substrate as described by Kuramochi et al. [Kuramochi, H. et al., (1987) J. Antibiot., 401605-1611].
During the same period, LAPase in cell supernatants of control cells remain unchanged. In addition, LAPase activity was determined in supernatants of primary parental cell lines immunoprecipitated with MAb 7B6(IgG1a)-protein-G-LAPase matrix bound antibodies. […] In addition, there was no effect of estrogen incubation on LAPase activity in purified preparations of this enzyme alone.

| Molecule | effect on es-LAPase activity / reaction rate (FIG. 2) [1] | Vmax of es-LAPase in presence of inhibitor [1] | mode of es-LAPase inhibition [1] | Km [1] [µM] | Ki [1] [µM] | effect of estrogen incubation on LAPase activity in purified preparations of the enzyme alone [2] | extracellular LAPase activity of estrogen stimulated cells ([3]; 100 nM, 24 hours, supernatants immunoprecipitated with MAb 7B6-protein-G matrix, control with media alone 6.4×10^−6 U/ml) | estrogen concentration of maximum release / optimal activation of LAPase ([3]; 24 hours of incubation, dose-dependent) [nM] |
| --- | --- | --- | --- | --- | --- | --- | --- | --- |
| CC(C)C[C@H](NC(=O)[C@@H](O)[C@H](N)Cc1ccccc1)C(=O)O [Bestatin] | clearly inhibits es-LAPase activity | 34.0 ± 3.9 10^−6 M/min | competitive |  |  |  |  |  |
| N[C@@H](CCC(=O)N[C@@H](CS)C(=O)NCC(=O)O)C(=O)O [Glutathione] | significant slower rates of reaction | 17.2 ± 1.5 10^−6 M/min | noncompetitive | 178 ± 25 | 1.53 ± 0.4 |  |  |  |
| C[C@]12CC[C@@H]3c4ccc(O)cc4CC[C@H]3[C@@H]1CC[C@@H]2O [estrogen, 17-β-Estradiol] |  |  |  |  |  | no effect | 7.7×10^−5 U/ml | 100 |
| B1 | significant slower rates of reaction | 5.31 ± 0.02 10^−6 M/min | uncompetitive | 23.4 ± 0.6 | 3.4 ± 0.58 |  |  |  |
